Reference: ChEMBL document CHEMBL5550190 (J Med Chem, 2024)

Experiments:
[1] = tested on: MDA-MB-231; assay: Antitumor activity against human MDA-MB-231 cells incubated for 48 hrs in presence of 1.5% BSA by Celltiter Blue reagent based 2D microtiter assay; assay type: functional
[2] = tested on: HCT-116; assay: Antitumor activity against human HCT-116 cells incubated for 48 hrs; assay type: functional
[3] = tested on: MDA-MB-231; assay: Antitumor activity against human MDA-MB-231 cells incubated for 48 hrs by Celltiter Blue reagent based 3D microtiter assay; assay type: functional
[4] = Intrinsic clearance in human hepatocytes measured per million cells incubated for 120 mins by LC-MS/MS analysis; assay type: ADME, cell-based, Hepatocyte; details: read-out: CLH
[5] = tested on: MDA-MB-231; assay: Antitumor activity against human MDA-MB-231 cells incubated for 48 hrs in presence of 1.5% BSA by Celltiter Blue reagent based 3D microtiter assay; assay type: functional
[6] = tested on: Hs-578T; assay: Antitumor activity against human Hs-578T cells incubated for 48 hrs; assay type: functional
[7] = tested on: A549; assay: Antitumor activity against human A549 cells incubated for 48 hrs; assay type: functional
[8] = tested on: MDA-MB-231; assay: Antitumor activity against human MDA-MB-231 cells incubated for 48 hrs by Celltiter Blue reagent based 2D microtiter assay; assay type: functional
[9] = tested on: BMDM; assay: Growth inhibition of mouse BMDMs; assay type: functional, cell-based
[10] = target: Cannabinoid receptor 2 (Homo sapiens, UniProt P34972); assay: Inhibition of CB2 (unknown origin); assay type: single protein
Chain of Cannabinoid receptor 2 (P34972 whole entry): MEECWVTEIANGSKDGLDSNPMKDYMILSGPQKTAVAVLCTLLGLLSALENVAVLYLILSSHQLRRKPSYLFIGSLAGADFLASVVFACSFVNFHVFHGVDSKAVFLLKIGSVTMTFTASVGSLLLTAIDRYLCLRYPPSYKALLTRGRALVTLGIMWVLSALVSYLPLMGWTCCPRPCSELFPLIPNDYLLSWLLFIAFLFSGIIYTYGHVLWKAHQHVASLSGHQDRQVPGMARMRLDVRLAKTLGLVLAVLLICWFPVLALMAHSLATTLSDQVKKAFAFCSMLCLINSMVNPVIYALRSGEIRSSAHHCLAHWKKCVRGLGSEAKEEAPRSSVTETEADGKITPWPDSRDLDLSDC

- GI50 [1]: < 1 nM
- GI50 [2]: < 5 nM
- GI50 [3]: 2.12 nM
- hepatocyte CLint [4]: 8.5 µL/min/1e6 cells
- GI50 [5]: 9.47 nM
- GI50 [7]: < 5 nM
- GI50 [8]: < 1 nM
- IC50 [10]: 4700 nM
Compound: [2H]C([2H])([2H])Oc1cc(C(=O)Nc2cc3c(cc2Oc2cc(C)cc(C)c2)C(=O)N[C@@H](CC(=O)N(OC([2H])([2H])[2H])C([2H])([2H])[2H])C(=O)N3)c(Br)c(OC([2H])([2H])[2H])c1OC([2H])([2H])[2H]
- GI50 [6]: < 5 nM
- IC50 [9]: 1420 nM
